These results are taken from patent US8211899B2, “Artificial nucleic acid bases and their use in base pairing natural nucleic acid bases” (Inter-University Research Institute Corporation National …, priority 2005, dated 2012).

Where two headings read alike, the source gives them in different places.

A short description of series [1]: solubility test in solvents at 1 to 100 mM. The format is physicochemical. Conditions: for solubility: warmed to 50° C. and cooled to 27° C.; for solubility in water and organic solvents: water and various organic solvents. On the procedure:
The solubility of PPT obtained in Example 1 was examined. For comparison, the solubility of a PPT derivative, wherein R is H in chemical formula I (hereinafter, referred to as “PPT(H)”). For the solubility test, each solvent listed in Table I was used, and the concentration of solute was 1 to 100 mM. The solution with respective concentrations was warmed once to 50° C. and cooled to 27° C. The solution with residues was referred to as “insoluble”, in the contrast the solution without residues was referred to as “soluble”. The concentration of the buffer was 100 mM and the pH was 7.0.

Series [2] relates to 1-methylthymine (T). Put plainly: test of base pair formation by UV absorbance change versus mixing ratio. Conditions: mixture with T, total 7.5 mmol/L, mol ratio 0:10 to 10:0, anhydrous DMSO, 25° C., 12 hr. The format is binding. The method, then: The test of base pair formation was carried out in the following way. The concentration of the mixture of PPT and one of respective N-methylated natural nucleic acid bases (1-methylcytosine (herein after, referred to as “C”), 1-methylthymine (hereinafter, referred to as “T”). 9-methyladenine (hereinafter, referred to as “A”), and 9-methylguanine (hereinafter, referred to as “G”)) was kept constant at 7.5 mmol/L and the ratio (mol ratio) of the mixture was varied from 0:10 to 10:0. The mixture was dissolved at 25° C. in anhydrous dimethyl sulfoxide (DMSO), which had been removed oxygen by freezing-degas method, dissolved argon gas, mixed with DMSO solution of substrates prepared before hand, and allowed to leave for overnight (12 hr.). Then, the change of absorbance in ultraviolet wavelength region was measured according to the following conditions: • (1) The measuring equipment, JASCO V-550 SERIAL NO. C02951260; • (2) The thermal controller, JASCO PSC-498T; • (3) The cell, GL Science Type: AB20-SQ-0.1 (Optical path is 0.1 mm); • (4) The cell adopter, CAS-10-1; • (5) The measured wavelength region, 200-350 nm.
The absorbance of substrates is proportional to a mixing ratio of the substrates (Beer's law) in the case of no interaction between substrates.
For comparison, the base pair formation was examined for A and T, and G and T similarly to Example 3.

Series [3] has as its system 1-methylcytosine (C). Described as above. Conditions: mixture with C, total 7.5 mmol/L, mol ratio 0:10 to 10:0, anhydrous DMSO, 25° C., 12 hr. It counts as binding. The method, then:
(§1) The test of base pair formation was carried out in the following way. […] The mixture was dissolved at 25° C. in anhydrous dimethyl sulfoxide (DMSO), which had been removed oxygen by freezing-degas method, dissolved argon gas, mixed with DMSO solution of substrates prepared before hand, and allowed to leave for overnight (12 hr.). Then, the change of absorbance in ultraviolet wavelength region was measured according to the following conditions: • (1) The measuring equipment, JASCO […]IAL NO. C02951260; • (2) The thermal controller, JASCO PSC-498T; • (3) The cell, GL Science Type: AB20-SQ-0.1 (Optical path is 0.1 mm); • (4) The cell adopter, CAS-10-1; • (5) The measured wavelength region, 200-350 nm. The absorbance changed in accordance with the mixing ratios. Plot of the absorbance change versus to mixing ratios at a wavelength, where the absorbance change was observed, are shown in FIG. 2. The absorbance of substrates is proportional to a mixing ratio of the substrates (Beer's law) in the case of no interaction between substrates.

Series [4] concerns 9-methyladenine (A). The series is described as above. The format is binding. The conditions noted are these: mixture with A, total 7.5 mmol/L, mol ratio 0:10 to 10:0, anhydrous DMSO, 25° C., 12 hr. The method, then:
as §1

Series [5] concerns 9-methylguanine (G). The description is as above. The conditions noted are these: mixture with G, total 7.5 mmol/L, mol ratio 0:10 to 10:0, anhydrous DMSO, 25° C., 12 hr. The format is binding. The method, then: as §1
Where [6] appears, read: TBE buffer 100 mM pH 7.0, concentration 1 mM.
Setting [7] is: TBE buffer 100 mM pH 7.0, concentration 100 mM.
Where [8] appears, read: phosphate buffer 100 mM pH 7.0, concentration 1 mM.
Setting [9] is: phosphate buffer 100 mM pH 7.0, concentration 100 mM.
Setting [10] is: DMF, 27 °C, organic solvent or mixture, thermodynamic from solid, DMF, concentration 1 mM, read-out: solubility.
Where [11] appears, read: DMF, 27 °C, organic solvent or mixture, thermodynamic from solid, DMF, concentration 100 mM, read-out: solubility.
Setting [12] is: DMSO, 27 °C, organic solvent or mixture, thermodynamic from solid, DMSO, concentration 1 mM, read-out: solubility.
The mark [13] stands for this setting: DMSO, 27 °C, organic solvent or mixture, thermodynamic from solid, DMSO, concentration 100 mM, read-out: solubility.
Where [14] appears, read: TBE buffer, 27 °C, pH 7, aqueous buffer, thermodynamic from solid, TBE buffer 100 mM pH 7.0, concentration 1 mM, read-out: solubility.
Where [15] appears, read: TBE buffer, 27 °C, pH 7, aqueous buffer, thermodynamic from solid, TBE buffer 100 mM pH 7.0, concentration 100 mM, read-out: solubility.
Setting [16] is: methanol, 27 °C, organic solvent or mixture, thermodynamic from solid, methanol, concentration 1 mM, read-out: solubility.
[17] abbreviates: methanol, 27 °C, organic solvent or mixture, thermodynamic from solid, methanol, concentration 100 mM, read-out: solubility.
Where [18] appears, read: phosphate buffer, 27 °C, pH 7, aqueous buffer, thermodynamic from solid, phosphate buffer 100 mM pH 7.0, concentration 1 mM, read-out: solubility.
[19] abbreviates: phosphate buffer, 27 °C, pH 7, aqueous buffer, thermodynamic from solid, phosphate buffer 100 mM pH 7.0, concentration 100 mM, read-out: solubility.
[20] abbreviates: water, 27 °C, water, thermodynamic from solid, water, concentration 1 mM, read-out: solubility.
Setting [21] is: water, 27 °C, water, thermodynamic from solid, water, concentration 100 mM, read-out: solubility.

Regarding `O=C(O)Cn1c(=O)[nH]c(=O)c2c(=O)[nH]c(=O)[nH]c21` [CH2COOH], the solubility entry in series [1] (DMF, concentration 1 mM) is “S (S: soluble)”; in series [1] (DMF, concentration 100 mM), “Ins (Ins: insoluble)”; in series [1] (DMSO, concentration 1 mM) it was “S (S: soluble)”; in series [1] (DMSO, concentration 100 mM), “Ins (Ins: insoluble)”; in series [1] (setting [6]), “S (S: soluble)”; in series [1] (setting [7]), “S (S: soluble)”. In addition, the solubility result in series [1] (methanol, concentration 1 mM) is given as “S (S: soluble)”; in series [1] (methanol, concentration 100 mM), “Ins (Ins: insoluble)”; in series [1] (setting [8]) it was “S (S: soluble)”; in series [1] (setting [9]) it was “S (S: soluble)”; in series [1] (water, concentration 1 mM) it was “S (S: soluble)”; in series [1] (water, concentration 100 mM), “S (S: soluble)”.
As to `Cn1cnc2c(=O)[nH]c(N)nc21` [G, 9-methylguanine], the “base pair formation: deviation of absorbance plot from the linear line by Beer's law” value (“base pair formation: deviation” below) in series [2] is on record as “no deviation from the linear line”.
For the compound `O=c1[nH]c(=O)c2c(=O)[nH]c(=O)n(CCO)c2[nH]1` [CH2CH2OH], the solubility result is given as “S (S: soluble)” in series [1] (DMF, concentration 1 mM); “Ins (Ins: insoluble)” in series [1] (DMF, concentration 100 mM); “S (S: soluble)” in series [1] (DMSO, concentration 1 mM); “Ins (Ins: insoluble)” in series [1] (DMSO, concentration 100 mM); “S (S: soluble)” in series [1] (setting [6]); “Ins (Ins: insoluble)” in series [1] (setting [7]). Moreover, the solubility result was “S (S: soluble)” in series [1] (methanol, concentration 1 mM); “Ins (Ins: insoluble)” in series [1] (methanol, concentration 100 mM); “S (S: soluble)” in series [1] (setting [8]); “Ins (Ins: insoluble)” in series [1] (setting [9]); “S (S: soluble)” in series [1] (water, concentration 1 mM); “Ins (Ins: insoluble)” in series [1] (water, concentration 100 mM).
`Cn1cnc2c(N)ncnc21` [A, 9-methyladenine]: the “base pair formation: deviation” value in series [2] is reported as “deviation from the linear line”.
In the case of `CC(C)(C)[Si](OCCn1c(=O)[nH]c(=O)c2c(=O)[nH]c(=O)[nH]c21)(c1ccccc1)c1ccccc1` [PPT, 1-[2-(t-butyl-diphenyl-silyloxy)-ethyl]-1H, 8H-pyrimido [4,5-d]pyrimidine-2,4,5,7-tetraone], the solubility in series [1] (setting [10]) was more than 1 mM; in series [1] (setting [11]), more than 1 mM; in series [1] (setting [12]), more than 1 mM; in series [1] (setting [13]) it was more than 1 mM; in series [1] (setting [14]) it was more than 1 mM; in series [1] (setting [15]), less than 100 mM. Moreover, the solubility is more than 1 mM in series [1] (setting [16]); less than 100 mM in series [1] (setting [17]); more than 1 mM in series [1] (setting [18]); less than 100 mM in series [1] (setting [19]); more than 1 mM in series [1] (setting [20]); less than 100 mM in series [1] (setting [21]). The “base pair formation: deviation” value in series [3], in series [4], in series [5] and in series [2] was “large deviation from the linear line” throughout.
As to `O=c1[nH]c(=O)c2c(=O)[nH]c(=O)[nH]c2[nH]1` [PPT(H), pyrimido [4,5-d]pyrimidine-2,4,5,7-tetraone, reference compound], the solubility in series [1] (setting [10]), in series [1] (setting [11]), in series [1] (setting [12]), in series [1] (setting [13]), in series [1] (setting [14]) and in series [1] (setting [15]) was less than 100 mM throughout. Moreover, the solubility in series [1] (setting [16]), in series [1] (setting [17]), in series [1] (setting [18]), in series [1] (setting [19]), in series [1] (setting [20]) and in series [1] (setting [21]) was less than 100 mM throughout. The figures for the “solubility in water and organic solvents” value in series [1] and in series [1] (listed as unsubstituted form of pyrimido [4,5-d] pyrimidine -2,4,5,7-tetraone) were “insoluble” and “extremely low”, respectively.
Consider `C=CCn1c(=O)[nH]c(=O)c2c(=O)[nH]c(=O)[nH]c21` [CH2CH═CH2], for which the solubility entry is “S (S: soluble)” in series [1] (DMF, concentration 1 mM); “S (S: soluble)” in series [1] (DMF, concentration 100 mM); “S (S: soluble)” in series [1] (DMSO, concentration 1 mM); “S (S: soluble)” in series [1] (DMSO, concentration 100 mM); “S (S: soluble)” in series [1] (setting [6]); “Ins (Ins: insoluble)” in series [1] (setting [7]). Moreover, the solubility result in series [1] (methanol, concentration 1 mM) was “S (S: soluble)”; in series [1] (methanol, concentration 100 mM), “Ins (Ins: insoluble)”; in series [1] (setting [8]), “S (S: soluble)”; in series [1] (setting [9]) it was “Ins (Ins: insoluble)”; in series [1] (water, concentration 1 mM), “S (S: soluble)”; in series [1] (water, concentration 100 mM), “Ins (Ins: insoluble)”.

What is called solubility is the dissolved amount per volume that the medium holds.
